# Reference: US9656951B2, “Polymorphs of CDDO ethyl ester and uses thereof” (Applied Pharmaceutical Science, Inc., priority 2012, dated 2017)
# Legend:
# in vivo = experiment: in vivo; set-up: species or system mice; details: mouse, ip, 10 mg/kg
# Experimental: Female CD-I mice were injected ip with 10 mg/kg of the three polymorphs of the compound of Formula I (CDDO ethyl) and methyl 2-cyano-3,12-dioxoIeana-1,9(11)-dien-28-oate (CDDO methyl) in DMSO-cremphor-PBS (1:1:8 weight by weight or volum by volum). Blood samples were collected at 0.083, 0.25, 0.5, 1, 2, 4, 8, and 24 hr post-dose. The levels were quantified by HPLC/MS using compound add to control blood for standard. PK results are shown at Table 3. The systemic exposure of the three polymorphs of the compound of Formula I of CDDO ethyl is higher than that of CDD) methyl. Following is the order: The glassy solid form of CDDO ethyl>Crystalline Form II of CDDO ethyl>Crystalline Form I of CDDO ethyl>CDDO Methyl
# [1] = test system: NO production induced by IFN-g in mouse macrophages (RAW 264.7 cells); experiment: Measurement of NO in RAW 264.7 cells induced by IFN-γ; assay type: cell-based; details: RAW264.7 cells, 10 ng/ml IFN-γ, 48 hours
# Experimental: Assay Protocol Procedures
# 1 Maintained RAW264.7 cells in DMEM with 10% FBS at 37° C., 5% CO2.
# Induction of NO in RAW264.7 Cells
# 1. The cells were seeded at 1×10^5/well onto 96-well cell culture plate.
# 2. After incubation for 2 hours at 37° C. under 5% CO2, the nonadherent cells were removed by aspiration and freshly prepared complete medium with 10 ng/ml IFN-γ and dilluted compounds was added.
# 3. Incubated the cells at 37° C. under 5% CO2 for another 48 hours.
# Measurement of NO in RAW Cells
# 1. Centrifuged at 1000 rpm for 5 minutes to collect supernatant medium.
# 2. Prepared 1 ml of a 100 μM nitrite solution by diluting the provided 0.1 M Nitrite Standard 1:1,000 in the matrix or buffer used for the experimental samples.
# 4. Allowed the Sulfanilamide Solution and NED Solution to equilibrate to room temperature (15-30 minutes).
# 5. Added 50 μl of each experimental sample to wells in duplicate.
# 6. Used a multichannel pipettor to dispense 50 μl of the Sulfanilamide Solution to all experimental samples and wells containing the dilution series for the Nitrite Standard.
# 7. […]
# 10. Measured absorbance within 30 minutes in a plate reader with a filter between 520 nm and 550 nm.
# The inhibitory activities [as measured by the IC50 (nM) value] of Crystalline Form II of the compound of Formula I (CDDO ethyl ester) on NO production induced by IFN-g in mouse macrophages 17 are shown in FIG. 5.
# [2] = Stability determination of polymorphs (XRD) at 25° C./60% R.H. and 40° C./75% R.H.; assay type: physicochemical
# Experimental: Other polymorphs of this invention were used similar in the study.
# The glassy solid Form of the compound of Formula I, prepared as described in Example 4, was test at 25° C./60% R.H. and 40° C./75% R.H for one week.
# [3] = 25° C./60% R.H. and 40° C./75% R.H.
"AUC(0-inf) (in vivo; female, CD-I) [ng·h/mL]","AUC(0-t) (in vivo; female, CD-I) [ng·h/mL]","Cmax (in vivo; female, CD-I) [ng/mL]","half-life (in vivo; female, CD-I) [h]","tmax (in vivo; female, CD-I) [h]",AUCInf (in vivo) [ng·h/mL],AUClast (in vivo) [ng·h/mL],Cmax (in vivo) [ng/mL],t1/2 (in vivo) [h],tmax (in vivo) [h],IC50 ([1]; listed as Crystalline Form II of the compound of Formula I (CDDO ethyl ester)) [nM],"change of XRD on storage [2, 3]",IC50 ([1]; listed as glassy solid form of the compound of Formula I (CDDO ethyl ester)) [nM],change of XRD on storage ([2]; 25° C./60% R.H. and 40° C./75% R.H for one week),Compound,"thermodynamic stability compared to other polymorphs [2, 3]"
1970,1800,363,6.6,0.8,,,,,,,,,,"COC(=O)[C@]12CCC(C)(C)C[C@H]1[C@H]1C(=O)C=C3[C@@]4(C)C=C(C#N)C(=O)C(C)(C)[C@@H]4CC[C@@]3(C)[C@]1(C)CC2 [CDDO Methyl Ester, methyl 2-cyano-3,12-dioxoIeana-1,9(11)-dien-28-oate, reference compound]",
,,,,,3456,3221,466,8.3,0.8,,,,,"ethyl 2-cyano-3,12-dioxoIeana-1,9(11)-dien-28-oate [Crystalline Form I of CDDO ethyl]",
,,,,,3840,3443,482,7.3,0.8,34,no significant change of XRD,,,"ethyl 2-cyano-3,12-dioxoIeana-1,9(11)-dien-28-oate [Crystalline Form II of CDDO ethyl]",most thermodynamically stable crystal form
,,,,,7526,4721,513,16.1,0.8,,,32,no significant change of XRD,"ethyl 2-cyano-3,12-dioxoIeana-1,9(11)-dien-28-oate [The glassy solid form of CDDO ethyl]",
